One data set deals with Pseudomonas aeruginosa. In words: viability (CCK-8) of MDCK cells challenged with Pseudomonas aeruginosa. The format is cell-based. The note with it: P. aeruginosa 10^6 CFU/mL, 5 h, inhibitor 2 h prior and during, tested 0.5-100 µM. As for the experimental part:
MDCK NBL-2 cells were obtained from Cytion (formerly: CLS Cell Lines Service, Eppenheim, Germany). Cells were grown in T-75 cell culture flasks, using Dulbecco’s Modified Eagle’s Medium (DMEM, Capricorn Scientific, Ebsdorfergrund, Germany) supplemented with 5% foetal bovine serum (FBS, Capricorn) and antibiotic–antimycotic solution (penicillin, streptomycin, amphotericin B; Merck, Darmstadt, Germany). The cells were subcultured and seeded in wells of 96-well microtiter plates one day prior to the experiments. After 24 h, near 100% confluence was recorded in the wells. The growth and incubation of MDCK cells were carried out in a humidified incubator at 37 °C and in the presence of 5% CO2. […] Three times single colonies from ten different blood agar plates were dissolved in 5 mL of distilled water, and colony-forming units (CFU) were counted after their serial dilution and overnight incubation on non-selective blood agar at 37 °C. […] The count of Pseudomonas aeruginosa from inoculating vials was also assessed and was in good accordance with our count prediction. […] Following the addition of the final reagent (100 µL fresh Williams’ Medium E) and a 2 h incubation period, the absorbance was measured at 450 nm using a SpectraMax iD3 (Molecular Devices, San José, CA, USA).

The target of data set [1] is T1, CYP3A4 (Homo sapiens, UniProt P08684). The data set is described as follows: microsomal CYP3A4 activity assay (human hepatic microsomes). The format is in vitro ADME. Also on record: human hepatic microsomes (Gibco, Biocenter, Szeged, Hungary); tissue Gibco (Biocenter, Szeged, Hungary); host or cells: human liver microsomes. As to conditions: for microsomal CYP3A4 function: 25, 50 and 100 µM; for inhibition at 100 µM: human, read-out: CYP3A4 inhibitory activities. As for the experimental part:
(§1) To investigate the effects of inhibitor MI-2415 on CYP3A4 activities, a P450-Glo CYP450 assay (Promega, Madison, WI, USA) was used. […] This luminescent method involves adding a cell-permeable Luciferin-IPA at 3 µM, which was used in 300 µL phenol-red free Williams’ Medium E in each well in the CYP3A4 assay with an incubation time of 1 h. The luminescence activity of the product in the presence of the luciferin detection reagent was proportional to the CYP activity. For the microsomal CYP3A4 assay of inhibitors MI-1851 and MI-2415 at 25, 50, and 100 µM (n = 3), BioVision CYP assays (BioVision, Inc., Kampenhout, Belgium) were used according to the manufacturer’s instructions. The protein content of human hepatic microsomes (Gibco, Biocenter, Szeged, Hungary) was determined by the bicinchoninic acid protein assay kit (Pierce BCA kit, Thermo Fisher Scientific, Waltham, MA, USA) and a 100 µg/well protein was used in each study. […] A Victor X2 2030 fluorescence spectrometer (Perkin Elmer, Waltham, MA, USA) was used to detect the fluorescence intensities of the microsomal CYP3A4 function at wavelengths of λex/em = 535/587 nm and it was also applied to detect the luminescence signals of the cell-based CYP3A4 activity assay.

Data set [2] has as its target T2, Human serum albumin (HSA) (Homo sapiens, UniProt P02768).
T2 construct: purchased Merck (Darmstadt, Germany) A1653
The data set is described as follows: fluorescence quenching of human serum albumin. The format is binding. The note with it: HSA 2 μM, ligand 1-10 μM, PBS pH 7.4, λex 295 nm. As for the experimental part: Human serum albumin (HSA) (product code: A1653) and α1-acid glycoprotein (AGP) (product code: G9885) were purchased from Merck (Darmstadt, Germany) and used as received. Fluorescence emission spectra were recorded using a Hitachi F-4500 fluorometer (Tokyo, Japan), while absorption spectra were collected by employing a Hitachi U-3900 UV–Vis spectrophotometer (Tokyo, Japan). Before the evaluation of fluorescence data, the inner-filter effects of MI-1851 and MI-2415 were corrected based on the following equation [23, 24]:(1) Icor=Iobs×e^(Aex+Aem)/2 where Icor and Iobs are the corrected and observed emission intensities, respectively; and Aex and Aem are the absorbance of the MI compounds tested at the excitation and emission wavelengths used, respectively.
To examine the potential interaction of inhibitor MI-2415 with HSA, increasing levels of the ligand (final concentrations: 0, 1, 2, 3, 4, 7, and 10 μM) were added to a standard amount of the protein (2 μM) in PBS (pH 7.4), and then the emission spectra were recorded (λex = 295 nm, λem = 340 nm). Furthermore, the quenching effects of inhibitors MI-1851 and MI-2415 (both 0, 0.25, 0.5, 1, 1.5, 2, and 2.5 μM) were also tested on the emission signal of AGP (2 μM) in PBS (λex = 285 nm, λem = 337 nm).

Data set [3] deals with T1, CYP3A4. The data set is described as follows: cell-based P450-Glo CYP3A4 activity assay in PHHs. It counts as in vitro ADME. On the set-up: human hepatic microsomes (Gibco, Biocenter, Szeged, Hungary); tissue Gibco (Biocenter, Szeged, Hungary); host or cells: human liver microsomes. The note with it: 100 µM, 24 h. As for the experimental part:
as §1

Where only a bound is given, the exact number is not on record here.

The record followed here is paper PMC11444200, “In Vitro Evaluation of Antipseudomonal Activity and Safety Profile of Peptidomimetic Furin Inhibitors” (Biomedicines, 2024).

T1 sequence (P08684 whole entry): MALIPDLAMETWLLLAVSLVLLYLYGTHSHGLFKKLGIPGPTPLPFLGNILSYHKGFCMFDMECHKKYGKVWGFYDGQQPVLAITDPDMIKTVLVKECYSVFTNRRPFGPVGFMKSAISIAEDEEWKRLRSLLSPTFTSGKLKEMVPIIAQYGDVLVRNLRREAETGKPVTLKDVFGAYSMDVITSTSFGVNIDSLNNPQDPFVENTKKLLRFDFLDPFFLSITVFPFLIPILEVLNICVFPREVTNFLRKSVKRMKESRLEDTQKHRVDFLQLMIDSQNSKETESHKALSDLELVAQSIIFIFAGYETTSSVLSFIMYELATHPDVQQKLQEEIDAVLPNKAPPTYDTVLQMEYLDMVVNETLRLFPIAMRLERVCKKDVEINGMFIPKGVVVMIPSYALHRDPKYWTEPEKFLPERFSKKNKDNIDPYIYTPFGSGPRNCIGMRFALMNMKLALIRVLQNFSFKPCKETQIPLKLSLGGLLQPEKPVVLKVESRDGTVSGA
T2 sequence (P02768 25-609): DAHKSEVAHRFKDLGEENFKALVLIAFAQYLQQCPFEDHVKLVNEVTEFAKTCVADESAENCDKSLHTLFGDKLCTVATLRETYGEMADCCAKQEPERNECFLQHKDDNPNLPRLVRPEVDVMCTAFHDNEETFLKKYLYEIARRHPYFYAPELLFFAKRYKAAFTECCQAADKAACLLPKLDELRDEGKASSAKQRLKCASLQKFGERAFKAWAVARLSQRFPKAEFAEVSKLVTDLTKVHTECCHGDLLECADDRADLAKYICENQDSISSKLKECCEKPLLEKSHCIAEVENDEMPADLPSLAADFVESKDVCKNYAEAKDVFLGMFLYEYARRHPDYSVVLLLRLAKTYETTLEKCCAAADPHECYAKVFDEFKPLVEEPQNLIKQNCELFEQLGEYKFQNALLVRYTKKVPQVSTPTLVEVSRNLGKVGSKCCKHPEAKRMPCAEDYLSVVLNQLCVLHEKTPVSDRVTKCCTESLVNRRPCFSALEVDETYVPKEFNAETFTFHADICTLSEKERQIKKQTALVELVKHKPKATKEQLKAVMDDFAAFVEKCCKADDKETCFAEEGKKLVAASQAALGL

For `CC(C)(C)[C@H](NC(=O)[C@H](CCONC(=N)N)NC(=O)Cc1ccc(CNC(=N)N)cc1)C(=O)N[C@@H](CCONC(=N)N)C(=O)NCc1ccc(C(=N)N)cc1` [MI-1851], the “concentration with antipseudomonal effect (preserved MDCK cell viability)” value in the data set with Pseudomonas aeruginosa is 0.5 µM. Moreover, on CYP3A4 [1], the “microsomal CYP3A4 function” value is “suppressed CYP3A4 function in a concentration-dependent manner” and the inhibition at 100 µM lay within 30 to 50%.

As to `CC(C)(C)[C@H](NC(=O)[C@H](CCONC(=N)N)NC(=O)Cc1ccc(CNC(=N)N)cc1)C(=O)N[C@@H](CCONC(=N)N)C(=O)NCc1ccc2c(c1)CN=C2N` [MI-2415], the “concentration with antipseudomonal effect (preserved MDCK cell viability)” value with Pseudomonas aeruginosa is recorded as at least 25 µM. For the same molecule, in data set [2], the “effect on emission intensity of HSA at 340 nm” value is reported as “did not influence the emission intensity of HSA”. Further, at CYP3A4 [1], the “concentration from which CYP3A4 inhibition is significant” value worked out at 50 µM, the “microsomal CYP3A4 function” value is recorded as “reduce CYP3A4 activity but only from 50 µM” and the inhibition at 100 µM is 30 to 50%. On CYP3A4 [3], the “CYP3A4 activity in PHHs” value is “significantly reduced”.
